Experimental data published in patent US9833497B2, “Human originated EGF domain proteins and use of the same” (CHENGDU SOURCEBIO LIMITED-LIABILITY COMPANY, priority 2013, dated 2017).

Columns and labels:
Assay type in all cases: cell-based
E. coli DH5α = test: Antibacterial activity: MIC and growth curve against E. coli DH5α in 96-well plate; details: minimal inhibitory concentration against E. coli DH5α; 96-well plate, 5×10^5 CFU/mL, 37° C., judged after 8 h
Summary of the method: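 Log-phase DH5α (OD600 about 0.5, 37° C, 185 rpm in LB) was pelleted, resuspended in fresh LB and seeded at 5×10^5 CFU/mL with recombinant protein at 50, 25 and 12.5 μg/mL (two-fold series), in triplicate. Plates were shaken at 175 rpm, 37° C, and OD600 was read every 30 min. MIC was the lowest concentration with no growth.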

E. coli BL21 = test: MIC against Gram-negative bacteria: E. coli BL21; details: 5×10^5 CFU/mL
Summary of the method: (§1)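 Growth inhibition by human EGF domain proteins was scored in LB liquid culture seeded at 5×10^5 CFU/mL. Protein was applied as a two-fold dilution series in triplicate, with shaking incubation at 37° C; MIC is the lowest concentration giving no growth.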

Pseudomonas aeruginosa = test: MIC against Gram-negative bacteria: Pseudomonas aeruginosa; details: 5×10^5 CFU/mL; for MIC against P. aeruginosa: Pseudomonas aeruginosa
Summary of the method: as §1

Klebsiella pneumonia = test: MIC against Gram-negative bacteria: Klebsiella pneumonia; details: 5×10^5 CFU/mL; for MIC against K. pneumonia: Klebsiella pneumonia
Summary of the method: as §1

Enterobacter cloacae = test: MIC against Gram-negative bacteria: Enterobacter cloacae; details: 5×10^5 CFU/mL; for MIC against E. cloacae: Enterobacter cloacae
Summary of the method: as §1

Aeromonas hydrophila = test: MIC against Gram-negative bacteria: Aeromonas hydrophila; details: 5×10^5 CFU/mL; for MIC against A. hydrophila: Aeromonas hydrophila
Summary of the method: as §1

Citrobacter diversus = test: MIC against Gram-negative bacteria: Citrobacter diversus; details: 5×10^5 CFU/mL; for MIC against C. diversus: Citrobacter diversus
Summary of the method: as §1

Moraxella catarrhalis = test: MIC against Gram-negative bacteria: Moraxella catarrhalis; details: 5×10^5 CFU/mL; for MIC against M. catarrhalis: Moraxella catarrhalis
Summary of the method: as §1

Proteus mirabilis = test: MIC against Gram-negative bacteria: Proteus mirabilis; details: 5×10^5 CFU/mL; for MIC against P. mirabilis: Proteus mirabilis
Summary of the method: as §1

Proteus vulgaris = test: MIC against Gram-negative bacteria: Proteus vulgaris; details: 5×10^5 CFU/mL; for MIC against P. vulgaris: Proteus vulgaris
Summary of the method: as §1

Serratia marcescens = test: MIC against Gram-negative bacteria: Serratia marcescens; details: 5×10^5 CFU/mL; for MIC against S. marcescens: Serratia marcescens
Summary of the method: as §1

[1] = E. coli BL21, 10 h cultivation at 37° C.
[2] = 10 h cultivation at 37° C., two-fold serial dilution

PRT621 (CQCNNNVDPSASGNCDRLTGRCLKCIHNTAGIYCDQCKAGYFGDPLAPNPADKCRA; listed as Homo sapiens)
MIC (E. coli DH5α): 50 µg/mL | MIC E. coli BL21 (E. coli BL21; 96-well plate, 37° C., 10 h): 25 µg/mL | MIC P. aeruginosa (Pseudomonas aeruginosa; 96-well plate, 37° C., 10 h): 50 µg/mL | MIC K. pneumonia (Klebsiella pneumonia; 96-well plate, 37° C., 10 h): 25 µg/mL | MIC E. cloacae (Enterobacter cloacae; 96-well plate, 37° C., 10 h): 50 µg/mL | MIC A. hydrophila (Aeromonas hydrophila; 96-well plate, 37° C., 10 h): 25 µg/mL | MIC C. diversus (Citrobacter diversus; 96-well plate, 37° C., 10 h): 50 µg/mL | MIC M. catarrhalis (Moraxella catarrhalis; 96-well plate, 37° C., 10 h): 25 µg/mL | MIC P. mirabilis (Proteus mirabilis; 96-well plate, 37° C., 10 h): 50 µg/mL | MIC P. vulgaris (Proteus vulgaris; 96-well plate, 37° C., 10 h): 25 µg/mL | MIC S. marcescens (Serratia marcescens; 96-well plate, 37° C., 10 h): 50 µg/mL

PRT1466 (CSCHTTGAVNHICNSLTGQCVCQDASIAGQRCDQCKDHYFGFDPQTGRCQP; listed as Homo sapiens)
MIC (E. coli DH5α): 50 µg/mL | MIC against E. coli BL21 (E. coli BL21; [1]): 25 µg/mL | MIC against P. aeruginosa (Pseudomonas aeruginosa; 10 h cultivation at 37° C.): 12.5 µg/mL | MIC against K. pneumonia (Klebsiella pneumonia; 10 h cultivation at 37° C.): 50 µg/mL | MIC against E. cloacae (Enterobacter cloacae; 10 h cultivation at 37° C.): 12.5 µg/mL | MIC against A. hydrophila (Aeromonas hydrophila; 10 h cultivation at 37° C.): 50 µg/mL | MIC against C. diversus (Citrobacter diversus; 10 h cultivation at 37° C.): 12.5 µg/mL | MIC against M. catarrhalis (Moraxella catarrhalis; 10 h cultivation at 37° C.): 50 µg/mL | MIC against P. mirabilis (Proteus mirabilis; 10 h cultivation at 37° C.): 25 µg/mL | MIC against P. vulgaris (Proteus vulgaris; 10 h cultivation at 37° C.): 12.5 µg/mL | MIC against S. marcescens (Serratia marcescens; 10 h cultivation at 37° C.): 25 µg/mL

PRT1377 (PASACPGGCGPRELCRAGQCVCVEGFRGPDC; listed as Homo sapiens)
MIC (E. coli DH5α): 25 µg/mL | MIC against E. coli BL21 (E. coli BL21; [1]): 50 µg/mL | MIC against P. aeruginosa (Pseudomonas aeruginosa; 10 h cultivation at 37° C.): 12.5 µg/mL | MIC against K. pneumonia (Klebsiella pneumonia; 10 h cultivation at 37° C.): 50 µg/mL | MIC against E. cloacae (Enterobacter cloacae; 10 h cultivation at 37° C.): 12.5 µg/mL | MIC against A. hydrophila (Aeromonas hydrophila; 10 h cultivation at 37° C.): 50 µg/mL | MIC against C. diversus (Citrobacter diversus; 10 h cultivation at 37° C.): 12.5 µg/mL | MIC against M. catarrhalis (Moraxella catarrhalis; 10 h cultivation at 37° C.): 50 µg/mL | MIC against P. mirabilis (Proteus mirabilis; 10 h cultivation at 37° C.): 12.5 µg/mL | MIC against P. vulgaris (Proteus vulgaris; 10 h cultivation at 37° C.): 50 µg/mL | MIC against S. marcescens (Serratia marcescens; 10 h cultivation at 37° C.): 12.5 µg/mL

PRT426 (DINECTSLSEPCRPGFSCINTVGSYTCQRNPLICARGYHASDDGTKCV; listed as Homo sapiens)
MIC (E. coli DH5α): 12.5 µg/mL | MIC (E. coli BL21; [1]): 50 µg/mL | MIC (Pseudomonas aeruginosa; P. aeruginosa, 10 h cultivation at 37° C.): 50 µg/mL | MIC (Klebsiella pneumonia; K. pneumonia, 10 h cultivation at 37° C.): 50 µg/mL | MIC (Enterobacter cloacae; E. cloacae, 10 h cultivation at 37° C.): 50 µg/mL | MIC (Aeromonas hydrophila; A. hydrophila, 10 h cultivation at 37° C.): 12.5 µg/mL | MIC (Citrobacter diversus; C. diversus, 10 h cultivation at 37° C.): 12.5 µg/mL | MIC (Moraxella catarrhalis; M. catarrhalis, 10 h cultivation at 37° C.): 12.5 µg/mL | MIC (Proteus mirabilis; P. mirabilis, 10 h cultivation at 37° C.): 12.5 µg/mL | MIC (Proteus vulgaris; P. vulgaris, 10 h cultivation at 37° C.): 25 µg/mL | MIC (Serratia marcescens; S. marcescens, 10 h cultivation at 37° C.): 50 µg/mL

PRT1096 (QLNVCNSNPCLHGGNCEDIYSSYHCSCPLGWSGKHCE; listed as Homo sapiens)
MIC (E. coli DH5α): 12.5 µg/mL | MIC E. coli BL21 (E. coli BL21; [2]): 50 µg/mL | MIC P. aeruginosa (Pseudomonas aeruginosa; [2]): 50 µg/mL | MIC K. pneumonia (Klebsiella pneumonia; [2]): 50 µg/mL | MIC E. cloacae (Enterobacter cloacae; [2]): 12.5 µg/mL | MIC A. hydrophila (Aeromonas hydrophila; [2]): 50 µg/mL | MIC C. diversus (Citrobacter diversus; [2]): 50 µg/mL | MIC M. catarrhalis (Moraxella catarrhalis; [2]): 12.5 µg/mL | MIC P. mirabilis (Proteus mirabilis; [2]): 12.5 µg/mL | MIC P. vulgaris (Proteus vulgaris; [2]): 12.5 µg/mL | MIC S. marcescens (Serratia marcescens; [2]): 25 µg/mL

PRT1321 (AIDECELDMRGGCHTDALCSYVGPGQSRCTCKLGFAGDGYQCS; listed as Homo sapiens)
MIC (E. coli DH5α): 50 µg/mL | MIC against E. coli BL21 (E. coli BL21; E. coli BL21, 96-well plate, 37° C., 10 h): 12.5 µg/mL | MIC against P. aeruginosa (Pseudomonas aeruginosa; 96-well plate, 37° C., 10 h): 50 µg/mL | MIC against K. pneumonia (Klebsiella pneumonia; 96-well plate, 37° C., 10 h): 25 µg/mL | MIC against E. cloacae (Enterobacter cloacae; 96-well plate, 37° C., 10 h): 12.5 µg/mL | MIC against A. hydrophila (Aeromonas hydrophila; 96-well plate, 37° C., 10 h): 50 µg/mL | MIC against C. diversus (Citrobacter diversus; 96-well plate, 37° C., 10 h): 12.5 µg/mL | MIC against M. catarrhalis (Moraxella catarrhalis; 96-well plate, 37° C., 10 h): 50 µg/mL | MIC against P. mirabilis (Proteus mirabilis; 96-well plate, 37° C., 10 h): 12.5 µg/mL | MIC against P. vulgaris (Proteus vulgaris; 96-well plate, 37° C., 10 h): 100 µg/mL | MIC against S. marcescens (Serratia marcescens; 96-well plate, 37° C., 10 h): 12.5 µg/mL

PRT1457 (CQCHGHADNCDTTSQPYRCLCSQESFTEGLHCDRCLPLYNDKPFRQGDQVYAFNCKP; listed as Homo sapiens)
MIC (E. coli DH5α): 12.5 µg/mL | MIC against E. coli BL21 (E. coli BL21; [1]): 25 µg/mL | MIC against P. aeruginosa (Pseudomonas aeruginosa; 10 h cultivation at 37° C.): 12.5 µg/mL | MIC against K. pneumonia (Klebsiella pneumonia; 10 h cultivation at 37° C.): 100 µg/mL | MIC against E. cloacae (Enterobacter cloacae; 10 h cultivation at 37° C.): 12.5 µg/mL | MIC against A. hydrophila (Aeromonas hydrophila; 10 h cultivation at 37° C.): 12.5 µg/mL | MIC against C. diversus (Citrobacter diversus; 10 h cultivation at 37° C.): 12.5 µg/mL | MIC against M. catarrhalis (Moraxella catarrhalis; 10 h cultivation at 37° C.): 12.5 µg/mL | MIC against P. mirabilis (Proteus mirabilis; 10 h cultivation at 37° C.): 25 µg/mL | MIC against P. vulgaris (Proteus vulgaris; 10 h cultivation at 37° C.): 12.5 µg/mL | MIC against S. marcescens (Serratia marcescens; 10 h cultivation at 37° C.): 25 µg/mL
